Where two headings read alike, the source gives them in different places.
Key:
[1] = tested on: bermudagrass; test: Test C pre-/postemergence herbicide test; type: in vivo, Cynodon dactylon; details: for pest or weed control at 250 g/ha / pest or weed control at 500 g/ha / pest or weed control at 125 g/ha / pest or weed control at 62 g/ha: Cynodon dactylon, 312 h
Source text: (§1) Seeds of plant species selected from bermudagrass (Cynodon dactylon (L.) Pers.), Surinam grass (Urochloa decumbens (Staph) R. D. Webster, previously named Brachiaria decumbens Stapf), cocklebur (Xanthium strumarium L.), corn (Zea mays L.), large crabgrass (Digitaria sanguinalis (L.) Scop.), woolly cupgrass (Eriochloa villosa (Thunb.) Kunth), giant foxtail (Setaria faberi Herrm.), goosegrass (Eleusine indica (L.) Gaertn.), johnsongrass (Sorghum halepense (L.) Pers.), kochia (Kochia scoparia (L.) Schrad.), lambsquarters (Chenopodium album L.), morningglory (Ipomoea coccinea L.), eastern black nightshade (Solanum ptycanthum Dunal), yellow nutsedge (Cyperus esculentus L.), pigweed (Amaranthus retroflexus L.), common ragweed (Ambrosia elatior L.), soybean (Glycine max (L.) Merr.), common (oilseed) sunflower (Helianthus annuus L.) and velvetleaf (Abutilon theophrasti Medik.) were planted and treated preemergence with test chemicals formulated in a non-phytotoxic solvent mixture which included a surfactant.
(§2) At the same time, plants selected from these crop and weed species and also winter barley (Hordeum vulgare L.), blackgrass (Alopecurus myosuroides Huds.), canarygrass (Phalaris minor Retz.), chickweed (Stellaria media (L.) Vill.), downy bromegrass (Bromus tectorum L.), green foxtail (Setaria viridis (L.) Beauv.), Italian ryegrass (Lolium multiflorum Lam.), wheat (Triticum aestivum L.), wild oat (Avenafatua L.) and windgrass (Apera spica-venti (L.) Beauv.) were treated with postemergence applications of some of the test chemicals formulated in the same manner. Plants ranged in height from 2 to 18 cm (1- to 4-leaf stage) for postemergence treatments. Plant species in the flooded paddy test consisted of rice (Oryza sativa), smallflower umbrella sedge (Cyperus difformis L.), ducksalad (Heteranthera limosa (Sw.) Willd.) and barnyardgrass (Echinochloa crus-galli (L.) Beauv.) grown to the 2-leaf stage for testing. Treated plants and controls were maintained in a greenhouse for 12 to 14 days, after which time all species were compared to controls and visually evaluated. Plant response ratings, summarized in Table C, are based on a scale of 0 to 100 where 0 is no effect and 100 is complete control. A dash (-) response means no test result.

[2] = tested on: morningglory; test: Test A pre-/postemergence herbicide test; type: in vivo, Ipomoea spp.; details: for pest or weed control at 500 g/ha / pest or weed control at 2000 g/ha: Ipomoea, 240 h
Outline: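 Both application timings were run together: directed soil spray over freshly planted seeds in sandy loam, and runoff spray onto 2–10 cm seedlings. Evaluation after ~10 days in greenhouse used a 0–100 visual scale versus untreated controls.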

[3] = tested on: rice; test: Test C flooded paddy test; type: in vivo, Oryza sativa
Outline: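 Plants were grown to the 1- to 4-leaf stage (2–18 cm) and then treated postemergence, or grown to the 2-leaf stage for the flooded paddy test. They were held in a greenhouse for 12 to 14 days and then scored by eye against controls, where 0 is no effect and 100 is complete control.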

[4] = tested on: common (oilseed) sunflower; test: Test C pre-/postemergence herbicide test; type: in vivo, Helianthus annuus
Source text: as §1, §2

[5] = tested on: eastern black nightshade; test: Test C pre-/postemergence herbicide test; type: in vivo, Solanum ptycanthum
Source text: as §1, §2

[6] = Postemergence, 250 g ai/ha, scale 0 to 100, 0 no effect, 100 complete control
[7] = postemergence, 125 g ai/ha, scale 0 to 100
[8] = postemergence, 62 g ai/ha, scale 0 to 100
[9] = 250 g ai/ha, scale 0 to 100 (0 no effect, 100 complete control), visual, 12 to 14 days, preemergence
[10] = 125 g ai/ha, scale 0 (no effect) to 100 (complete control), visual, 12 to 14 days, preemergence
[11] = Postemergence, 500 g ai/ha, 0 to 100 scale, 0 no effect, 100 complete control
[12] = Postemergence, 2000 g ai/ha, 0 to 100 scale, 0 no effect, 100 complete control
[13] = 62 g ai/ha, preemergence, scale 0 to 100, 0 no effect, 100 complete control
[14] = 250 g ai/ha, scale 0-100, preemergence
[15] = 500 g ai/ha, scale 0 to 100 (0 no effect, 100 complete control), visual, 12 to 14 days, preemergence
[16] = 62 g ai/ha, preemergence, scale 0 to 100

SMILES: CCn1nc(C(C)(C)C)cc1C(=O)Nc1cccc(C(=O)OCCF)c1 [Compound 82, 2-fluoroethyl 3-[[[3-(1,1-dimethylethyl)-1-ethyl-1H-pyrazol-5-yl]-carbonyl]amino]benzoate]
- pest or weed control at 250 g/ha ([1]; post-emergence, Postemergence, 250 g ai/ha, scale 0 to 100, read-out: Bermudagrass plant response rating): 0%
- pest or weed control at 500 g/ha ([1]; post-emergence, Postemergence, 500 g ai/ha, scale 0 to 100, read-out: Bermudagrass plant response rating): 10%
- pest or weed control at 125 g/ha ([1]; post-emergence, postemergence, 125 g ai/ha, scale 0 to 100, read-out: Plant response rating, Bermudagrass): 0%
- pest or weed control at 62 g/ha ([1]; post-emergence, postemergence, 62 g ai/ha, scale 0 to 100, read-out: Plant response rating, Bermudagrass): 0%
- pest or weed control at 500 g/ha ([2]; post-emergence, Postemergence, 500 g ai/ha, 0 to 100 scale, 0 no effect, 100 complete control, read-out: Plant response rating, Morningglory): 20%
- pest or weed control at 2000 g/ha ([2]; post-emergence, Postemergence, 2000 g ai/ha, 0 to 100 scale, 0 no effect, 100 complete control, read-out: Plant response rating, Morningglory): 10%
- pest or weed control at 500 g/ha ([2]; pre-emergence, Preemergence, 500 g ai/ha, visual rating, 0 to 100 scale (0 no effect, 100 complete control), read-out: Morningglory plant response rating): 0%
- pest or weed control at 2000 g/ha ([2]; pre-emergence, Preemergence, 2000 g ai/ha, 0 to 100 scale, 0 no effect, 100 complete control, read-out: Morningglory plant response rating): 15%

SMILES: CCOC(=O)c1cccc(NC(=O)c2cc(C3(C)CC3)nn2CC)c1 [Compound 295]
- Plant response rating, Bermudagrass [1, 6]: 0
- Plant response rating, Bermudagrass [1, 7]: 0
- Plant response rating, Bermudagrass ([1]; postemergence, 31 g ai/ha, scale 0 to 100): 0
- Plant response rating, Bermudagrass [1, 8]: 0
- Rice plant response rating ([3]; 62 g ai/ha, scale 0 to 100): 5
- Rice plant response rating ([3]; 125 g ai/ha, scale 0 to 100 (0 no effect, 100 complete control)): 10
- Rice plant response rating ([3]; 250 g ai/ha, scale of 0 to 100, 0 is no effect, 100 is complete control): 40
- Plant response rating, Rice ([3]; 500 g ai/ha, visual rating after 12 to 14 days, scale 0 to 100 (0 no effect, 100 complete control)): 40

SMILES: CCn1nc(C(C)(C)C)cc1C(=O)Nc1cccc(C(=O)NC2CC2)c1 [Compound 44]
- Plant response rating (0 = no effect, 100 = complete control), Bermudagrass ([1]; 62 g ai/ha, preemergence): 0
- Plant response rating, Bermudagrass [1, 9]: 20
- Plant response rating, Bermudagrass ([1]; Postemergence, 125 g ai/ha, scale 0 to 100, 0 no effect, 100 complete control): 90
- Plant response rating (0 = no effect, 100 = complete control), Sunflower ([4]; 62 g ai/ha, preemergence): 0
- Plant response rating, Sunflower [4, 10]: 0
- Plant response rating, Sunflower [4, 9]: 0
- Plant response rating (0 = no effect, 100 = complete control), Nightshade ([5]; 62 g ai/ha, preemergence): 80
- Plant response rating, Nightshade [5, 10]: 90
- Plant response rating, Nightshade [5, 9]: 100
- Plant response rating, Morningglory [2, 11]: 15
- Plant response rating, Morningglory [2, 12]: 45
- Morningglory plant response rating ([2]; Preemergence, 500 g ai/ha, visual rating, 0 to 100 scale (0 no effect, 100 complete control)): 10
- Morningglory plant response rating ([2]; Preemergence, 2000 g ai/ha, 0 to 100 scale, 0 no effect, 100 complete control): 30

SMILES: CCNC(=S)c1cccc(NC(=O)c2nn(C(C)(C)C)nc2C)c1 [Compound 420]
- Plant response rating, Bermudagrass [1, 13]: 100
- Plant response rating (0 = no effect, 100 = complete control), Bermudagrass ([1]; 125 g ai/ha, preemergence): 100
- Plant response rating, Bermudagrass [1, 14]: 100
- Plant response rating, Bermudagrass [1, 15]: 100
- Plant response rating, Sunflower [4, 16]: 0
- Plant response rating (0 = no effect, 100 = complete control), Sunflower ([4]; 125 g ai/ha, preemergence): 0
- Plant response rating, Sunflower [4, 15]: 65
- Plant response rating, Nightshade [5, 16]: 80
- Plant response rating (0 = no effect, 100 = complete control), Nightshade ([5]; 125 g ai/ha, preemergence): 90
- Plant response rating, Nightshade [5, 15]: 100

SMILES: Cc1nn(C(C)(C)C)nc1C(=O)Nc1cccc(C(=S)N(C)C)c1 [Compound 419]
- Plant response rating, Bermudagrass [1, 13]: 100
- Plant response rating (0 = no effect, 100 = complete control), Bermudagrass ([1]; 125 g ai/ha, preemergence): 100
- Plant response rating, Bermudagrass [1, 14]: 100
- Plant response rating, Bermudagrass [1, 15]: 100
- Plant response rating, Sunflower [4, 16]: 0
- Plant response rating (0 = no effect, 100 = complete control), Sunflower ([4]; 125 g ai/ha, preemergence): 0
- Plant response rating, Sunflower [4, 15]: 95
- Plant response rating, Nightshade [5, 16]: 85
- Plant response rating (0 = no effect, 100 = complete control), Nightshade ([5]; 125 g ai/ha, preemergence): 95
- Plant response rating, Nightshade [5, 15]: 100

SMILES: CCn1nc(C(C)(C)C)cc1C(=O)Nc1cc(OC(F)(F)F)ccc1F [Compound 338]
- Bermudagrass plant response rating ([1]; Postemergence, 500 g ai/ha, scale 0 to 100): 5
- Plant response rating, Bermudagrass [1, 6]: 0
- Plant response rating, Bermudagrass [1, 7]: 0
- Plant response rating, Bermudagrass [1, 8]: 0
- Morningglory plant response rating [2, 11]: 25
- Plant response rating, Morningglory [2, 12]: 70
- Morningglory plant response rating ([2]; Preemergence, 2000 g ai/ha, visual rating, 0 to 100 scale (0 no effect, 100 complete control)): 40
- Morningglory plant response rating ([2]; preemergence, 500 g ai/ha, visual injury, 0 to 100 scale (0 no effect, 100 complete control)): 10

SMILES: CCNC(=O)c1cccc(NC(=O)c2nn(C(C)(C)C)cc2Br)c1 [Compound 221, 4-bromo-1-(1,1-dimethylethyl)-N-[3-[(ethylamino)carbonyl]phenyl]-1H-pyrazole-3-carboxamide]
- pest or weed control at 62 g/ha ([1]; pre-emergence, 62 g ai/ha, preemergence, scale 0 to 100, 0 no effect, 100 complete control, read-out: Plant response rating, Bermudagrass): 0%
- pest or weed control at 125 g/ha ([1]; pre-emergence, 125 g ai/ha, scale 0 (no effect) to 100 (complete control), visual, 12 to 14 days, read-out: Plant response rating, Bermudagrass): 10%
- pest or weed control at 250 g/ha ([1]; pre-emergence, 250 g ai/ha, scale 0-100, read-out: Plant response rating, Bermudagrass): 85%
- pest or weed control at 500 g/ha ([1]; pre-emergence, Preemergence, 500 g ai/ha, scale 0 to 100, 0 no effect, 100 complete control, read-out: Bermudagrass plant response rating): 85%
- pest or weed control at 62 g/ha ([4]; Helianthus annuus, pre-emergence, 62 g ai/ha, preemergence, scale 0 to 100, read-out: Plant response rating, Sunflower): 0%
- pest or weed control at 250 g/ha ([4]; Helianthus annuus, pre-emergence, 250 g ai/ha, scale 0-100, read-out: Plant response rating, Sunflower): 0%
- pest or weed control at 500 g/ha ([4]; Helianthus annuus, pre-emergence, 500 g ai/ha, scale 0 to 100 (0 no effect, 100 complete control), visual, 12 to 14 days, read-out: Plant response rating, Sunflower): 30%
- pest or weed control at 62 g/ha ([5]; pre-emergence, 62 g ai/ha, preemergence, scale 0 to 100, read-out: Plant response rating, Nightshade): 30%
- pest or weed control at 125 g/ha ([5]; pre-emergence, 125 g ai/ha, scale 0 (no effect) to 100 (complete control), visual, 12 to 14 days, read-out: Plant response rating, Nightshade): 50%
- pest or weed control at 250 g/ha ([5]; pre-emergence, 250 g ai/ha, scale 0-100, read-out: Plant response rating, Nightshade): 70%
- pest or weed control at 500 g/ha ([5]; pre-emergence, 500 g ai/ha, scale 0 to 100 (0 no effect, 100 complete control), visual, 12 to 14 days, read-out: Plant response rating, Nightshade): 100%
